For one molecule, concentration, IC50 and solubility results are on record in patent US11059823B2, “Small molecule inhibitors of the JAK family of kinases” (Janssen Pharmaceutica NV, priority 2016, dated 2021).

Read-outs that look alike come from different tables or passages of the source.

Data set [1] can be described thus: Plasma and colon concentrations after p.o. dosing (Protocols 1 and 2). In kind it is in vivo, female C57BL/6 mice. Particulars: female, C57BL/6, mouse, po, mice, 25 mg/kg p.o. The protocol:
These protocols are described below under the heading In vivo Studies.
(§1) Three non-fasted female C57BL/6 mice were orally administered test compound at a dose of 25 mg/kg p.o. as a solution in 20% hydroxypropyl-beta-cyclodextrin (HPβCD) at a dose volume of 5 mL/kg. Blood samples were collected at 0.5, 2, and 4 h post dose via retro-orbital bleed or venipuncture of the dorsal metatarsal vein. Blood samples were collected into tubes containing anticoagulant (Heparin-Na) and placed on wet ice. The plasma fraction was separated by centrifugation and frozen at −20° C. for up to 4 h and −80° C. after 4 h unless analyzed shortly after sample collection. Colon samples were collected at 4 h post dose. From the beginning of the cecum, a 4-6 cm sample of the colon was dissected, cut open on the longitudinal axis, and the solid contents removed by flushing with 2 mL of saline. The colon was further washed by putting it in 5 mL of saline and shaken for 5 seconds. The colon sample was then patted dry, weighed, and homogenized as 1 part tissue (g) to 4 parts HPLC grade water (mL). Concentrations of the compound in plasma and colon homogenate were determined using a qualified liquid chromatography-triple quadrupole mass spectrometry (LC-MS/MS) method.
as §1, with “HPβCD” for “hydroxypropyl-beta-cyclodextrin (HPβCD)”, “or” for “or venipuncture of the”, “2 cm below” for “the beginning of”, “4” for “4-6”

A further data set deals with JAK1-JH1JH2 (Homo sapiens (Human), UniProt P23458). The data set can be described thus: Enzymatic inhibition assay (HTMS), JAK1. In kind it is biochemical. Particulars: 12.5 μM ATP; read-out: JAK1_JH1JH2 IC50. An excerpt: (§2) JAK1-JH1JH2 (574-1154 with a His-GST Tag and a C-terminal tev (ENLYFQ-G) cleavage site), JAK3-JH1JH2 (512-1124 with a GST Tag and a C-terminal tev (ENLYFQ-G) cleavage site), and Tyk2-JH1JH2 (8H_tev_580-1182-C936A-C1142A with a C-terminal tev (ENLYFQ-G) cleavage site) were purified internally. […] LC/MS grade water and acetonitrile (ACN), were purchased from HoneyWell, Burdick & Jackson (Muskegon, Mich., USA). Dimethylsulfoxide 99.8% (DMSO) and trifluoroacetic acid 99.5% (TFA) were purchased from EMD Chemical (Gibbstown, N.J., USA). Adenosine triphosphate (ATP), 4-morpholinepropanesulfonic acid (MOPS), magnesium chloride (MgCl2), ethylenediaminetetraacetic acid (EDTA), dithiothreitol (DTT), formic acid >95% (FA) and Tween-20 were purchased from Sigma (St Louis, Mo., USA). 384-well polypropylene plates, Cat#781280 were purchased from Greiner (Monroe, N.C.), RapidFire™ cartridge A C4 Column (Agilent Technologies, Santa Clara, Calif.). […]
(§3) 11-point dosing series were made for each compound by serially diluting 1:3 or 1:4 in DMSO, with point 12 being a DMSO control. […] Compound inhibition was assessed by a decrease of the phosphorylated product levels in sample wells compared to the non-inhibited enzyme reaction. […]

Another data set concerns the target JAK3-JH1JH2 (Homo sapiens (Human), UniProt P52333). The data set can be described thus: Enzymatic inhibition assay (HTMS), JAK3. Format: biochemical. Particulars: 150 μM ATP; read-out: JAK3_I_JH1JH2 IC50.
Source text: as §2, §3

A further data set addresses Tyk2-JH1JH2 (Homo sapiens (Human), UniProt P29597, C1142A/C936A). The data set can be described thus: Enzymatic inhibition assay (HTMS), Tyk2. The note with it: 50 μM ATP; read-out: Tyk2_I_JH1JH2 IC50. In kind it is biochemical.
Source text: as §2, §3

A further data set can be described thus: physchem. The note with it: thermodynamic from solid.

Sequence of JAK3-JH1JH2 (P52333 512-1124): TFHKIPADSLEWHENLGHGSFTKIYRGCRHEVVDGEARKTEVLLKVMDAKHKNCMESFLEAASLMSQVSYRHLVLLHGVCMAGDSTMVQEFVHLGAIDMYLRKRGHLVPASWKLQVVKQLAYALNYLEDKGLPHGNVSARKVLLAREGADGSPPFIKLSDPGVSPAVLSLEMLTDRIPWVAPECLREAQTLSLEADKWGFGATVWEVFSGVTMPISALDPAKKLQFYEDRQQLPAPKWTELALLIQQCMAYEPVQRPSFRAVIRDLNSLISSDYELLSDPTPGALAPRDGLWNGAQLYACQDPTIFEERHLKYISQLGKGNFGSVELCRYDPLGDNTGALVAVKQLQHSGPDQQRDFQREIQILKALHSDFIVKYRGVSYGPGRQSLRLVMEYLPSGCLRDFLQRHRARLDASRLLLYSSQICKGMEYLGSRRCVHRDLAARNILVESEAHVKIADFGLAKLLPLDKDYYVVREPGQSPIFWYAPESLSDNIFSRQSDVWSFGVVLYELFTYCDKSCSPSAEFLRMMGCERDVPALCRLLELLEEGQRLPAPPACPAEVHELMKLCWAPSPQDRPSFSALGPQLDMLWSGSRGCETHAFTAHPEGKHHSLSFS
Sequence of JAK1-JH1JH2 (P23458 574-1154): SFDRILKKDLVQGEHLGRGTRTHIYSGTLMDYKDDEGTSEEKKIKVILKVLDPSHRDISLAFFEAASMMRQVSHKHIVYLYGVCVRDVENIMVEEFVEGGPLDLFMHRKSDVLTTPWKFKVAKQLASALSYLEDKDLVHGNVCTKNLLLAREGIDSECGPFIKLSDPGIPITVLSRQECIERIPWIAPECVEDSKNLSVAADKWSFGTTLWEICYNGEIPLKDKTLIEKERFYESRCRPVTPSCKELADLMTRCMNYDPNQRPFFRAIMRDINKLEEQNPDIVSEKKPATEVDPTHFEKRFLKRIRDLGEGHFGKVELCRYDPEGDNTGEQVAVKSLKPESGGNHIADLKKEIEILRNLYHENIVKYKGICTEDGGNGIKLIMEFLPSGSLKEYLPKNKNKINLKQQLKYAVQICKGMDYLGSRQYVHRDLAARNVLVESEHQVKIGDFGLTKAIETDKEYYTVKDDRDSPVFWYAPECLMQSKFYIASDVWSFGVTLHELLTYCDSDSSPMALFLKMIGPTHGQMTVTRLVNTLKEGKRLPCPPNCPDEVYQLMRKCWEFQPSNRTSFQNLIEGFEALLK
Sequence of Tyk2-JH1JH2 (P29597 580-1182 C936A/C1142A): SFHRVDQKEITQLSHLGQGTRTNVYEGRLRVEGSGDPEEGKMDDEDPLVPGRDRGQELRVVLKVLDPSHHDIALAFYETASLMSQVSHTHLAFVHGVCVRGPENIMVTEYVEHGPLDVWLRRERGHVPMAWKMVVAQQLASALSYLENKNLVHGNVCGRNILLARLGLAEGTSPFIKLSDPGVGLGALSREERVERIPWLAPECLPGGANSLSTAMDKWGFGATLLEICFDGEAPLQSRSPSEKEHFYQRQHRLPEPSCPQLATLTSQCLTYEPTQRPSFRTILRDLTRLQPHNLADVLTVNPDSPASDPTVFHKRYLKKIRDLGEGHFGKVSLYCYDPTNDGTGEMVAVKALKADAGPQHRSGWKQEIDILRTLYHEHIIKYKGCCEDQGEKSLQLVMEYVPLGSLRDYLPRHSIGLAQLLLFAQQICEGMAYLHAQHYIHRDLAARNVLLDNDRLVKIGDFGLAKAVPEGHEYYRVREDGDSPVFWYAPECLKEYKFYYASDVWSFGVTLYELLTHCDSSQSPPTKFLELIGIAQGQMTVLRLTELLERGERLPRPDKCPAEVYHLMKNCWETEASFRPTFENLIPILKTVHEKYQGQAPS

Broadly, the IC50 is the concentration that gives 50% inhibition. What is called solubility is the concentration that dissolves in the medium under given conditions. For the molecule `N#CC[C@H]1CC[C@H](n2c(-c3c[nH]cn3)nc3cnc4[nH]ccc4c32)CC1` [Ex. 2, 2-((1r,4r)-4-(2-(1H-Imidazol-4-yl)imidazo[4,5-d]pyrrolo[2,3-b]pyridin-1(6H)-yl)cyclohexyl)acetonitrile], the concentration at 4 h in data set [1] (colon, read-out: Colon Concentration After p.o. Dosing, Mean) stood at 7600 ng/g; in data set [1] (plasma, read-out: Plasma Concentration After p.o. Dosing, Mean), 1.3 ng/mL. In data set [1] (plasma, Time = 0.5 h), the concentration at 0.5 h came to 24.5 ng/mL. The same molecule displayed a concentration at 2 h in data set [1] (plasma, Time = 2 h) of 4.2 ng/mL. Further, the IC50 on JAK1-JH1JH2 was 0.2 nM; at JAK3-JH1JH2, 33.9 nM; on Tyk2-JH1JH2, 1.5 nM. Besides, the solubility in the data set “physchem” (pH 6.5, fassif) was over 400 µM; in “physchem” (simulated gastric fluid) it was over 400 µM.
